Reference: ChEMBL document CHEMBL1201862, “PubChem BioAssay data set” (2004)
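Step 1: Grow cells in 96-well plates. Step 2: Expose to compound for 48 hours at 5 concentrations. Step 3: Interpolate endpoints linearly; if unreached, use highest concentration. Abbreviation: GI50, concentration required for 50% inhibition of growth.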 The source made the active and inactive calls. Cut-off read from the data, not from the text of the source: active = GI50 up to about 1.1 µM and inactive = higher. Residues, ends and D or L forms follow the SMILES beside them. Groups on a side chain read outwards from the residue. *: point of attachment. Cbz = O=C(OCc1ccccc1)*; Boc = CC(C)(C)OC(=O)*

System: BT-549
Assay: NCI tumour cell line growth inhibition, 48 h

SMILES	GI50
CC1CCC(C(C)C)C(OC(=O)NCn2cc(-c3ccccc3)nn2)C1 (stereo not drawn)	> 100 µM (inactive)
CC1=NNC(=O)C1C1C=C(c2c[nH]c3ccccc23)OC1=O (stereo not drawn)	> 100 µM (inactive)
NC(=O)CN1CC(C2=C(O)CN(CC(N)=O)C2=O)=CC1=O	> 100 µM (inactive)
C=C(C)CN(CC#N)CC(=C)C	> 100 µM (inactive)
COc1nc(O)nc2c1C(c1ccc([N+](=O)[O-])cc1)c1c(OC)nc(O)nc1O2	> 100 µM (inactive)
NC(=O)N/N=C1\CCCCc2ccccc21	> 10 µM (inactive)
COc1ccc(N2C(=O)/C(=C\c3cccc(Oc4ccccc4)c3)S(=O)(=O)C2c2ccccc2)cc1 (stereo not drawn)	25.6 µM (inactive)
S=C(/N=c1\sc(NCc2ccccc2)nc2sc3c(c12)CCN(N1CCc2c(sc4nc(NCc5ccccc5)s/c(=N\C(=S)NCc5ccccc5)c24)C1)C3)NCc1ccccc1	62.2 µM (inactive)
CC(C)NCCC(O)c1cc2ccccc2o1 (stereo not drawn)	> 100 µM (inactive)
CSc1ccc2c(c1)N(CCCN(C)C)c1ccccc1S2	15.4 µM (inactive)
O=C(Nc1nc(C23CC4CC(CC(C4)C2)C3)cs1)c1c(O)c2ccccc2[nH]c1=O	> 100 µM (inactive)
COc1c(O)cc2c3c(ccnc13)NC=C2	> 100 µM (inactive)
COC(=O)N/N=C(\C)C(CN1CCOCC1)C(c1ccccc1)c1cc2ccccc2oc1=O (stereo not drawn)	68.7 µM (inactive)
C[C@]12CC[C@@H]3c4ccc(O)cc4CC[C@H]3[C@@H]1CC[C@@H]2OC(=O)CCc1ccccc1	18.5 µM (inactive)
Nc1ncnc2ccc(Sc3ccc4ncnc(N)c4c3)cc12	> 100 µM (inactive)
COc1ncnc2c1cnn2Cc1cn(COCC(O)CO)nn1 (stereo not drawn)	> 100 µM (inactive)
COc1c(N2CCCCC2)c2c(=O)c3ccccc3oc2c2c3ccccc3n(C)c12	98.6 µM (inactive)
CC(=O)Nc1ccc2c(c1)[nH]c(=O)c1cc(Cl)ccc12	25.8 µM (inactive)
CC(=O)OCC1(C)C(O)CCC2(C)C1CCC1CC3CC12CCC3(O)CO (stereo not drawn)	> 86.3 µM (inactive)

SMILES	GI50
C[N+](C)(C)CCN[N+]1(C)CCCc2ccccc21 (stereo not drawn)	> 100 µM (inactive)
CCOC(=O)C(C(=O)c1ccccc1C(=O)OC)=P(c1ccccc1)(c1ccccc1)c1ccccc1	> 10 µM (inactive)
COC(=O)C1=COc2c(n(C)c3ccccc23)-c2ccccc21	> 100 µM (inactive)
CCc1cc2c(oc3cc(C)ccc32)c(=O)n1C	> 10 µM (inactive)
CCOC(=O)C1C(=O)CC(C)(O)C(C(=O)OCC)C1c1ccc(N(C)C)cc1 (stereo not drawn)	> 100 µM (inactive)
CC(C)(C)/C(=N\Nc1nc2ccccc2[nH]1)c1ccccn1	> 100 µM (inactive)
CS(=O)(=O)CCC1CCC(=O)O1 (stereo not drawn)	53 µM (inactive)
C[C@]12C(=O)OC[C@H](c3ccccc3)N1C(=O)N(Cc1ccccc1)[C@@H]2CO	> 100 µM (inactive)
CC[C@@]1(C)CCC2c3ccc(O)cc3CC[C@H]2C1C (stereo partly drawn)	19 µM (inactive)
COC(=O)/C=C(/C(=O)OC)c1c(C)cc2c(C)cc(C)cc(C)c1-2	15 µM (inactive)
OC(c1cc2ccc(C(F)(F)F)cc2c2cc(C(F)(F)F)ccc12)C1CCCCN1 (stereo not drawn)	1.92 µM (inactive)
COc1cccc(OCC(=N/NC(=O)c2ccncc2)/N=C/c2cccnc2)c1	> 100 µM (inactive)
O=C(CSC1=NC(=O)C2(NN1)c1ccccc1-c1ccccc12)NC(=S)Nc1ccccc1	> 10 µM (inactive)
c1ccc(Cc2cccc3cc(-c4ccc(-c5ccccc5)cc4)[nH]c23)cc1	> 100 µM (inactive)
Cc1cc(C)c2c(O)cc(-c3cccc(Cl)c3)nc2n1	1.59 µM (inactive)
CC(C)(C)OC(=O)NC(CCCCNC(=O)CNC(=O)OCc1ccccc1)C(=O)NC(CCCCNC(=O)CNC(=O)OCc1ccccc1)C(=O)NC(CCCCNC(=O)CNC(=O)OCc1ccccc1)C(=O)NC(CCCCNC(=O)CNC(=O)OCc1ccccc1)C(=O)O (stereo not drawn) (Boc-K([Gly-Cbz])K([Gly-Cbz])K([Gly-Cbz])K([Gly-Cbz])-OH; configuration not given here)	> 100 µM (inactive)
Cc1nc2c(=S)n(C)ncc2[nH]1	> 100 µM (inactive)
COC(=O)c1cccc(COc2ccc([N+](=O)[O-])cc2Cl)c1	> 100 µM (inactive)
CCC1(O)C(=O)OCc2c1cc1n(c2=O)Cc2cc3cc(N)ccc3nc2-1 (stereo not drawn)	< 0.01 µM (active)
